The results in this text go back to ChEMBL document CHEMBL1201862, “PubChem BioAssay data set” (2004).

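These data come from cells grown in 96-well plates and exposed to compound for 48 hours at five concentrations. GI50 = concentration required for 50% inhibition of growth.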 The source made the active and inactive calls. No stated cut-off is given here; in the data, active = GI50 up to about 1.1 µM and inactive = higher. Some results are limits rather than exact numbers.

Common to all, as to assay: NCI-60 cell line screen, 48 h
The subject of assay [1] is NCI-H460.
For assay [2], the system named is PC-3.
Assay [3] concerns A498.
For assay [4], the system named is HCT-15.
Assay [5] deals with BT-549.
For assay [6], the system named is UACC-62.
The test system of assay [7] is K562.
For assay [8], the system named is TK-10.
The subject of assay [9] is RXF 393.
For assay [10], the system named is SF-268.
Assay [11] deals with OVCAR-5.
For assay [12], the system named is HOP-92.
In assay [13] the test system is SK-MEL-2.
Assay [14] has as its system SR.
Assay [15] concerns UACC-257.
Assay [16] has as its system HCC 2998.
Assay [17] relates to NCI/ADR-RES.
Assay [18] relates to SNB-19.
Assay [19] deals with CAKI-1.
Assay [20] concerns OVCAR-8.

For `C/C(=N\Nc1nc2ccccc2s1)c1cccc[n+]1[O-]`, the GI50 in assay [1] was 46.2 µM (inactive); in [2], 33 µM (inactive); in [3], > 100 µM (inactive); in assay [4], 34.2 µM; in assay [5] it was > 100 µM (inactive); in assay [6], 50.1 µM (inactive). The GI50 in [7] was 31.4 µM (inactive); in assay [8] it was 17 µM (inactive); in assay [9], 66.2 µM (inactive); in assay [10], 36.2 µM (inactive); in assay [11], 2.33 µM (inactive); in assay [12], 13.5 µM (inactive). Also, the GI50 in assay [13] was > 100 µM (inactive); in [14] it was 23.9 µM (inactive); in assay [15], 40.1 µM (inactive); in [16] it was 0.0252 µM (active); in [17], 29.7 µM (inactive); in assay [18] it was > 100 µM (inactive). For the same molecule, the figures for the GI50 in [19] and in assay [20] were 32.4 µM (inactive) and 30.2 µM (inactive), respectively.
`CC(=O)O[C@H]1CC[C@@]2(C)C(=CC[C@@H]3[C@@H]2CC[C@]2(C)c4c(cc(C#N)c(=N)n4C(C)=O)C[C@@H]32)C1`: the GI50 in assay [1] is 16.4 µM (inactive); in [2], 21.5 µM (inactive); in assay [3] it was 30.5 µM (inactive); in assay [4], 15.2 µM; in assay [5], 15.4 µM (inactive); in assay [6] it was 15.7 µM (inactive). Further, the GI50 is 4.06 µM (inactive) in [7]; 25.4 µM (inactive) in [8]; 22.6 µM (inactive) in assay [9]; 27.9 µM (inactive) in [10]; 27.4 µM (inactive) in assay [11]; 14.7 µM (inactive) in assay [12]. Also, the GI50 is 23.8 µM (inactive) in assay [14]; 19.1 µM (inactive) in [15]; 23.2 µM (inactive) in assay [16]; 17.2 µM (inactive) in [17]; 28 µM (inactive) in [18]; 30.8 µM (inactive) in [19]. Also, the GI50 in assay [20] is 16.7 µM (inactive).
Regarding `O=C1NC2=NN=C(c3ccc(Br)cc3)CN2NC12c1ccccc1-c1ccccc12`, the GI50 is > 100 µM (inactive) in [1]; > 100 µM (inactive) in [2]; > 100 µM (inactive) in [3]; > 100 µM in assay [4]; > 100 µM (inactive) in assay [5]; > 100 µM (inactive) in [6]. For the same molecule, the GI50 in [7], in assay [8], in [9], in [10], in assay [11] and in [12] was > 100 µM (inactive) each time. For the same molecule, the GI50 is > 100 µM (inactive) in assay [13]; 69.2 µM (inactive) in assay [14]; > 100 µM (inactive) in assay [15]; > 100 µM (inactive) in [16]; > 100 µM (inactive) in assay [17]; > 100 µM (inactive) in [18]. Further, the GI50 in [19] and in assay [20] was > 100 µM (inactive) in each case.
Regarding `CC(C)(C)[Si](C)(C)OCC1C=CC(n2cnc3c(N)ncnc32)O1` (centres undefined), the GI50 in [1] was > 100 µM (inactive); in assay [2], 39.8 µM (inactive); in assay [3], > 79.3 µM (inactive); in assay [4], 53.1 µM; in assay [5], 24.7 µM (inactive); in assay [6], 44.5 µM (inactive). The GI50 in assay [7] is 9.1 µM (inactive); in [8], > 100 µM (inactive); in assay [9], 24.1 µM (inactive); in assay [10], 83.2 µM (inactive); in assay [11] it was 72.8 µM (inactive); in [12], 9.04 µM (inactive). The GI50 was 39.4 µM (inactive) in assay [13]; 15.1 µM (inactive) in [14]; 36 µM (inactive) in [15]; > 100 µM (inactive) in assay [16]; 34.2 µM (inactive) in assay [17]; 94.2 µM (inactive) in assay [18]. Also, the GI50 was > 100 µM (inactive) in assay [19] and 42.6 µM (inactive) in assay [20].
With `C[C@]12CC[C@H]3[C@@H](CCC4=CC(=O)C=C[C@@]43O)[C@@H]1CCC2=O`, the GI50 is > 100 µM (inactive) in [1]; > 100 µM (inactive) in [2]; > 100 µM (inactive) in assay [3]; 56 µM in assay [4]; 55.2 µM (inactive) in assay [5]; 60.1 µM (inactive) in [6]. The GI50 in assay [7] is 83.9 µM (inactive); in assay [9] it was > 100 µM (inactive); in assay [11], > 100 µM (inactive); in [12], 27.9 µM (inactive); in [13], 77.4 µM (inactive); in [14], 74.3 µM (inactive). In addition, the GI50 in [15] is > 100 µM (inactive); in assay [16], > 100 µM (inactive); in assay [17], 78.3 µM (inactive); in [18], > 100 µM (inactive); in assay [19], > 100 µM (inactive); in assay [20], 81.1 µM (inactive).
For `COc1ccc(/C=C2\N=C(c3ccccc3)N(C3Nc4cc5c(cc4S3)NC(N3C(=O)/C(=C/c4ccc(OC)cc4)N=C3c3ccccc3)S5)C2=O)cc1` (centres undefined), the GI50 in [1] was 12.7 µM (inactive); in assay [2] it was 83.6 µM (inactive); in assay [3], 40.4 µM (inactive); in [4] it was 38.5 µM; in assay [5] it was 23.3 µM (inactive); in assay [7], 58.2 µM (inactive). Besides, the GI50 in assay [8] is > 100 µM (inactive); in assay [9], > 100 µM (inactive); in [10], 29.6 µM (inactive); in [11], > 100 µM (inactive); in [12], > 100 µM (inactive); in assay [13] it was 31.6 µM (inactive). Besides, the GI50 in assay [14] is 9.68 µM (inactive); in assay [15], > 100 µM (inactive); in assay [16], 30.1 µM (inactive); in assay [17], 19.2 µM (inactive); in assay [19] it was > 100 µM (inactive); in assay [20] it was 27.1 µM (inactive).
`CCOC(=O)CCNC(=O)c1cc(C)cc2c1Oc1c(cc(C)cc1C(=O)NCCC(=O)OCC)S2`: the GI50 in assay [2] was > 100 µM (inactive); in [3], 27.2 µM (inactive); in [4] it was > 100 µM; in assay [5], 68.7 µM (inactive); in assay [6], 38.5 µM (inactive); in assay [7] it was > 100 µM (inactive). The GI50 in assay [8] was 42.3 µM (inactive); in assay [9], 20.9 µM (inactive); in [10] it was 49.2 µM (inactive); in assay [11] it was > 100 µM (inactive); in [12], 19.5 µM (inactive); in assay [13], 90.8 µM (inactive). Further, the GI50 in assay [14] is > 100 µM (inactive); in assay [15] it was 79.6 µM (inactive); in assay [16], > 100 µM (inactive); in [17] it was 44.6 µM (inactive); in assay [18], 42 µM (inactive); in [19] it was 65.6 µM (inactive). For the same molecule, the GI50 in assay [20] was 78.3 µM (inactive).
